# Publication PMC4508619 (Scientific Reports, 2015)
# Entries after “also recorded” stand apart in the source; their conditions may differ.
# Legend:
# Assay type in all cases: cell-based
# [1] = biological target: T1, rTRPV1 concatemer wt/3ya (Rattus norvegicus, UniProt O35433, Y511A); test: Single-channel outside-out patch recording, Flp-in TREX HEK293 cells, wt/3ya; details: for single-channel average amplitude, wt/3ya / unitary conductance, wt/3ya: +60 mV, outside-out
# T1 construct: expressed in transfected cells
# T1 sequence (O35433 whole entry, stated change not applied): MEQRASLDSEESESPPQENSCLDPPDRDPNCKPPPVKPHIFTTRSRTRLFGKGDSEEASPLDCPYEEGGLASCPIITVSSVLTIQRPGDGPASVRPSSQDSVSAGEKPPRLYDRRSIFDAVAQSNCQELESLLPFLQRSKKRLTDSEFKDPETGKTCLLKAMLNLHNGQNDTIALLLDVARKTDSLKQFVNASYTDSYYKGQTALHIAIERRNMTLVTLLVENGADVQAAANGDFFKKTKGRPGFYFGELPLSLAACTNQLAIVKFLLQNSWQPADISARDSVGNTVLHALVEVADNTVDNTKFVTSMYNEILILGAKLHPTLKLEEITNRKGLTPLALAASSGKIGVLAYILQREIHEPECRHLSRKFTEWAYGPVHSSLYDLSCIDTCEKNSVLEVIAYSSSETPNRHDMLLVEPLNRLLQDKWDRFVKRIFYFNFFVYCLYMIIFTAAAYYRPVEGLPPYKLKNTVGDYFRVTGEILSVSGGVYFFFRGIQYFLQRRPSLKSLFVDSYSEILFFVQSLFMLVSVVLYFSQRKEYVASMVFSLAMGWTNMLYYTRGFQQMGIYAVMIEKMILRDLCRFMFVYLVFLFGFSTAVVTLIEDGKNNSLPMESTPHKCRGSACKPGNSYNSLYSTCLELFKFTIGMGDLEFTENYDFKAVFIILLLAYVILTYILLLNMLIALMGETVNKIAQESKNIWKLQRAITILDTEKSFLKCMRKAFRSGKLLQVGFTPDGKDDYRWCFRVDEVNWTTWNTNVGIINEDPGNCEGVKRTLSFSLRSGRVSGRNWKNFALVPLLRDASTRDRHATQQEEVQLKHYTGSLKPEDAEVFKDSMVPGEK
# T1 sequence (O35433 2-838 Y511A limits assumed): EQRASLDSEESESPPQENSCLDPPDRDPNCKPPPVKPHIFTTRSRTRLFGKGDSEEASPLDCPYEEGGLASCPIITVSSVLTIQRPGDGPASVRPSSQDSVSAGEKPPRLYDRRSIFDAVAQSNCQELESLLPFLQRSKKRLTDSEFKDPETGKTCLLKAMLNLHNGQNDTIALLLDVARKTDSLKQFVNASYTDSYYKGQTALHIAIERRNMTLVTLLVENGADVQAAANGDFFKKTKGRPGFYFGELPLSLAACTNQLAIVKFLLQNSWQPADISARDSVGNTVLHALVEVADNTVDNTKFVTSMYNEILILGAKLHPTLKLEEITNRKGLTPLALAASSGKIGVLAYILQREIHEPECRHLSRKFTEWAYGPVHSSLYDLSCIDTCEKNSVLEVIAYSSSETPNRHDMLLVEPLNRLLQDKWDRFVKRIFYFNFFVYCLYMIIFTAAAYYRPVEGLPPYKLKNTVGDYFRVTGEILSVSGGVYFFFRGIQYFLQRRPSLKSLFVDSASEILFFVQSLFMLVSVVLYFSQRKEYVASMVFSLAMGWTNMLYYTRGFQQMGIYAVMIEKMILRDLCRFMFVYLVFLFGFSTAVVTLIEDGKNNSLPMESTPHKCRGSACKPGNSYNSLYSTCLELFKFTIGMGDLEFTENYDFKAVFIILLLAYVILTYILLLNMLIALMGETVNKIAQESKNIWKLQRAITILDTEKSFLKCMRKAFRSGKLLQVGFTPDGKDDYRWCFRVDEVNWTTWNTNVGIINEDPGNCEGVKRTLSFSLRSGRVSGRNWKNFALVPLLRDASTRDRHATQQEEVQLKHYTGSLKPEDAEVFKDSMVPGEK
# T1 sequence (O35433 2-838 Y511A limits assumed): as above
# T1 sequence (O35433 2-838 Y511A limits assumed): as above
# From the text: (§1) In order to facilitate recording from a single channel, we used an inducible system, Flp-in TREX, which allows doxycycline-controlled construct expression levels. […] The membrane potential was held at +60 mV considering that the conductance of TRPV1 receptor channels is higher at positive potentials. The pipette contained standard intracellular patch solution, and the patch of membrane was continuously perfused with standard extracellular solution.
# (§2) Briefly, cells were co-transfected (performed as described above) with pcDNA5/FRT/TO containing the gene of interest and the Flp-recombinase expression vector pOG44 into the Flp-In host cell line (Invitrogen, MA, USA) at a ratio of 1:9, respectively, as previously described.
# (§3) Patch clamp experiments were executed using HEK293T cells in the whole cell or outside-out configuration 24 hrs after transfection, as previously described. 30,000 cells were plated on glass coverslips (12 mm) coated with relevant amounts of poly-D-Lysine (PDL; Sigma-Aldrich, MO, USA) and/or Matrigel (BD-biosciences, MA, USA) according to the configuration (see below). Patch electrodes were fabricated from borosilicate glass using the P1000 Micropipette Puller (Sutter Instrument, CA, USA) and fire-polished using the microforge MF-900 (Narishige, Tokyo, Japan). Electrodes were coated with Sylgard (World Precision Instrument, FL, USA) to reduce the capacity of the recording pipette and to improve noise characteristics. […] Recordings were performed using Axopatch 200B patch clamp amplifier (Molecular Devices, CA, USA), and data was collected and analyzed using pClamp 10.2 software (Molecular Devices, CA, USA). All experiments were carried out at room temperature.
# (§4) Single-channel currents were recorded in the outside-out patch configuration of the patch-clamp technique, as previously described. All single-channel recordings were done using the stable cell line Flp-in TREX 293 cells. Cells were plated on coverslips coated with 0.2 mg/ml PDL one hour prior induction. Doxycycline concentration and induction times for obtaining a membrane patches with a single channel were determined for each construct. Generally, 0.3–1 μg/ml doxycycline was used for 2–4 hrs prior to recordings. Patch electrodes were fire-polished to a resistance of 10–15 MΩ. The pipette solution contained (mM): 130 KCl, 4 NaCl, 2 MgSO4, 0.5 CaCl2, 1 EGTA and 10 HEPES adjusted to pH 7.2 with KOH. Single-channel currents were low-pass filtered at 5 kHz and digitized at 50 kHz. Occasional large brief noise spikes were visually identified and removed from the current traces. Single-channel recordings were analyzed with the pCLAMP 10.2 program Clampfit (Axon Instruments, USA), as previously described. For each concatemeric construct, 150–2000 events were collected from each of 3–5 separate patches. To determine channel amplitude, all-point amplitude histograms were created using data digitally filtered at 2 kHz. To determine channel open probability, traces filtered at 5 kHz were idealized using the half-amplitude threshold crossing method (pCLAMP 10.2)[38].
# [2] = biological target: T2, concatemeric rTRPV1 (4wt) (Rattus norvegicus, UniProt O35433); test: Two electrode voltage clamp, Xenopus laevis oocytes expressing 4wt concatemer; details: capsaicin, TEVC
# T2 sequence (O35433 whole entry): as the sequence (O35433 whole entry, stated change not applied) above
# T2 sequence (O35433 2-838 limits assumed): as the sequence (O35433 2-838 Y511A limits assumed) above, with A510Y counted along it
# T2 sequence (O35433 2-838 limits assumed): as the sequence (O35433 2-838 Y511A limits assumed) above, with A510Y counted along it
# T2 sequence (O35433 2-838 limits assumed): as the sequence (O35433 2-838 Y511A limits assumed) above, with A510Y counted along it
# Procedure: (§5) The current-voltage relationship was determined using whole-cell patch-clamp recordings.
# (§6) Stage V–VI Xenopus laevis oocytes were prepared as previously described. Oocytes were injected up to 24 hr after isolation with a total of 5 ng cRNA, and assayed 5–10 days later. Two electrode voltage-clamp recordings were carried out at RT using GeneClamp 500 connected to digidata1322A and pCLAMP 8.2 (Molecular Devices, CA, USA). Electrodes (Sutter Instruments, CA, USA) were filled with 3 M KCl and had resistance of 0.5–1 MΩ. Oocytes were continuously perfused with normal frog ringer (NFR) solution without calcium containing (mM): 115 NaCl, 2.5 KCl, 2 […], and 10 HEPES, pH 7.4 with NaOH.
# [3] = biological target: T3, rTRPV1 concatemer 2wt/2ya (two Y511A subunits) (Rattus norvegicus, UniProt O35433, Y511A); test: Whole-cell patch-clamp, HEK293T cells expressing 2wt/2ya concatemer; details: −40 mV
# T3 construct: expressed in transfected cells; host or cells: HEK293T, transient, pCDNA3.1+
# T3 sequence (O35433 whole entry, stated change not applied): as the sequence (O35433 whole entry, stated change not applied) above
# T3 sequence (O35433 2-838 limits assumed, stated change not applied): as the sequence (O35433 2-838 Y511A limits assumed) above, with A510Y counted along it
# T3 sequence (O35433 2-838 Y511A limits assumed): as the sequence (O35433 2-838 Y511A limits assumed) above
# T3 sequence (O35433 2-838 Y511A limits assumed): as above
# Procedure: (§7) Next, we determined the concentration-response relationship of the various concatemeric constructs, using the whole-cell configuration of the patch clamp at holding voltage of −40 mV.
# (§8) Patch clamp experiments were executed using HEK293T cells in the whole cell or outside-out configuration 24 hrs after transfection, as previously described. 30,000 cells were plated on glass coverslips (12 mm) coated with relevant amounts of poly-D-Lysine (PDL; Sigma-Aldrich, MO, USA) and/or Matrigel (BD-biosciences, MA, USA) according to the configuration (see below). […] Recordings were performed using Axopatch 200B patch clamp amplifier (Molecular Devices, CA, USA), and data was collected and analyzed using pClamp 10.2 software (Molecular Devices, CA, USA). […]
# (§9) HEK293T cells were plated on coverslips pre-coated with 0.05 mg/ml poly-D-Lysine (PDL; Sigma-Aldrich, MO, USA) and 1 μg/ml Matrigel (BD-biosciences, Bedford, MA, USA) three hrs prior to recordings. […] To avoid potential voltage errors due to receptor overexpression, dose responses were recorded at −40 mV, with the maximal current limited to ~2.5 nA. […] Proton response recordings were performed with 50 μM Amiloride in the bath solution (Sigma-Aldrich, MO, USA) in order to block natively expressed ASICs[43].
# (§10) Dose response curves were calculated by SigmaPlot software (San Jose, CA) using the sigmoidal Hill equation as follows: […]
# [4] = biological target: T4, rTRPV1 concatemer 4qa (E600Q/E648A in all subunits) (Rattus norvegicus, UniProt O35433, E600Q/E648A); test: Whole-cell patch-clamp, HEK293T cells expressing 4qa concatemer; details: capsaicin 1 μM, −40 mV
# T4 construct: expressed in transfected cells; host or cells: HEK293T, transient, pCDNA3.1+
# T4 sequence (O35433 whole entry E600Q/E648A): as the sequence (O35433 whole entry, stated change not applied) above, with E600Q, E648A counted along it
# T4 sequence (O35433 2-838 E600Q/E648A limits assumed): as the sequence (O35433 2-838 Y511A limits assumed) above, with A510Y, E599Q, E647A counted along it
# T4 sequence (O35433 2-838 E600Q/E648A limits assumed): as the sequence (O35433 2-838 Y511A limits assumed) above, with A510Y, E599Q, E647A counted along it
# T4 sequence (O35433 2-838 E600Q/E648A limits assumed): as the sequence (O35433 2-838 Y511A limits assumed) above, with A510Y, E599Q, E647A counted along it
# Procedure: as §3, with “Japan).” for “Japan). Electrodes were coated with Sylgard (World Precision Instrument, FL, USA) to reduce the capacity of the recording pipette and to improve noise characteristics.”, “All experiments were carried out at room temperature.” left out
# as §9
# [5] = biological target: T5, rTRPV1 concatemer wt/3ya (three Y511A subunits) (Rattus norvegicus, UniProt O35433, Y511A); test: Whole-cell patch-clamp, HEK293T cells expressing wt/3ya concatemer
# T5 construct: expressed in transfected cells; host or cells: HEK293T, transient, pCDNA3.1+
# T5 sequence (O35433 whole entry, stated change not applied): as the sequence (O35433 whole entry, stated change not applied) above
# T5 sequence (O35433 2-838 Y511A limits assumed): as the sequence (O35433 2-838 Y511A limits assumed) above
# T5 sequence (O35433 2-838 Y511A limits assumed): as above
# T5 sequence (O35433 2-838 Y511A limits assumed): as above
# Procedure: as §7, §8, §9, §10
# [6] = biological target: T6, rTRPV1 (wt) (Rattus norvegicus, UniProt O35433); test: Whole-cell patch-clamp, HEK293T cells transiently expressing wt rTRPV1; parameters: expressed in transfected cells; host or cells: HEK293T, transient, pCDNA3.1+
# T6 sequence (O35433 whole entry): as the sequence (O35433 whole entry, stated change not applied) above
# Procedure: as §5
# as §3, with “Japan).” for “Japan). Electrodes were coated with Sylgard (World Precision Instrument, FL, USA) to reduce the capacity of the recording pipette and to improve noise characteristics.”, “All experiments were carried out at room temperature.” left out
# as §9, with “ASICs[43]. […]” for “ASICs[43].”
# [7] = biological target: T6, rTRPV1 (wt); test: Two electrode voltage clamp, Xenopus laevis oocytes expressing wt rTRPV1; details: capsaicin, TEVC
# Procedure: as §5, §6
# [8] = biological target: T7, rTRPV1 concatemer 4ya (Y511A in all subunits) (Rattus norvegicus, UniProt O35433, Y511A); test: Whole-cell patch-clamp, HEK293T cells expressing 4ya concatemer; details: capsaicin 100 μM, whole-cell voltage ramps −80 to +80 mV
# T7 construct: expressed in transfected cells; host or cells: HEK293T, transient, pCDNA3.1+
# T7 sequence (O35433 whole entry Y511A): as the sequence (O35433 whole entry, stated change not applied) above, with Y511A counted along it
# T7 sequence (O35433 2-838 Y511A limits assumed): as the sequence (O35433 2-838 Y511A limits assumed) above
# T7 sequence (O35433 2-838 Y511A limits assumed): as above
# T7 sequence (O35433 2-838 Y511A limits assumed): as above
# Procedure: as §3, with “Japan).” for “Japan). Electrodes were coated with Sylgard (World Precision Instrument, FL, USA) to reduce the capacity of the recording pipette and to improve noise characteristics.”, “All experiments were carried out at room temperature.” left out
# as §9
# [9] = biological target: T2, concatemeric rTRPV1 (4wt); test: Whole-cell patch-clamp, HEK293T cells expressing tetrameric concatemer 4wt; parameters: expressed in transfected cells; host or cells: HEK293T, transient, pCDNA3.1+
# Procedure: as §5, §7, §8
# as §9, with “ASICs[43]. […]” for “ASICs[43].”
# [10] = biological target: T8, rTRPV1 concatemer 3wt/ya (one Y511A subunit) (Rattus norvegicus, UniProt O35433, Y511A); test: Whole-cell patch-clamp, HEK293T cells expressing 3wt/ya concatemer; details: −40 mV
# T8 construct: expressed in transfected cells; host or cells: HEK293T, transient, pCDNA3.1+
# T8 sequence (O35433 whole entry, stated change not applied): as the sequence (O35433 whole entry, stated change not applied) above
# T8 sequence (O35433 2-838 limits assumed, stated change not applied): as the sequence (O35433 2-838 Y511A limits assumed) above, with A510Y counted along it
# T8 sequence (O35433 2-838 limits assumed, stated change not applied): as the sequence (O35433 2-838 Y511A limits assumed) above, with A510Y counted along it
# T8 sequence (O35433 2-838 Y511A limits assumed): as the sequence (O35433 2-838 Y511A limits assumed) above
# Procedure: as §7, §8, §9, §10
# [11] = biological target: T2, concatemeric rTRPV1 (4wt); test: Single-channel outside-out patch recording, Flp-in TREX HEK293 cells, 4wt; parameters: expressed in transfected cells; host or cells: HEK293T, transient, pCDNA3.1+
# From the text: as §1, §2, §3
# as §4, with “To determine channel amplitude, all-point amplitude histograms were created using data digitally filtered at 2 kHz. To determine channel open probability, traces filtered at 5 kHz were idealized using the half-amplitude threshold crossing method (pCLAMP 10.2)[38].” left out
# [12] = 2 μM capsaicin, +60 mV, outside-out
smiles,measurement,setting,value
COc1cc(CNC(=O)CCCC/C=C/C(C)C)ccc1O [capsaicin],"single-channel average amplitude, wt/3ya",[1]; 2 μM capsaicin,4.8 ± 0.5 pA
same,"unitary conductance, wt/3ya",[1]; 2 μM capsaicin,80 ± 5 pS
same,"single-channel average amplitude, wt/3ya",[1]; 30 μM capsaicin,4.9 ± 0.4 pA
same,"unitary conductance, wt/3ya",[1]; 30 μM capsaicin,82 ± 3 pS
same,"capsaicin concentration required to achieve full TRPV1 activation, wt/3ya",[1]; single functional VBS,30 µM
same,"average current amplitude ICAP+80mV (±SEM), oocytes, 4wt",[2],4.7 ± 0.2 μA
same,"Hill coefficient nH for capsaicin, 2wt/2ya",[3],1.2
same,"capsaicin response, 4qa vs 4wt",[4],unaffected
same,response of wt/3ya construct to capsaicin,"[5]; capsaicin 100 μM, whole-cell voltage ramps −80 to +80 mV",robust outward-rectifying current; also recorded: robust capsaicin response
same,"Hill coefficient nH for capsaicin, wt/3ya","[5]; whole-cell, −40 mV",1.1
same,"average current amplitude ICAP+80mV (±SEM), HEK293T, wt","[6]; capsaicin 1 μM, +80 mV",8.3 ± 1.2 nA
same,"Hill coefficient nH for capsaicin, wt","[6]; whole-cell, −40 mV",1.3
same,"average current amplitude ICAP+80mV (±SEM), oocytes, wt",[7],5.6 ± 0.3 μA
same,response of 4ya construct to capsaicin,[8],insensitive; also recorded: nearly eliminated
same,"average current amplitude ICAP+80mV (±SEM), HEK293T, 4wt","[9]; capsaicin 1 μM, +80 mV",7.8 ± 1.8 nA
same,"Hill coefficient nH for capsaicin, 4wt","[9]; whole-cell, −40 mV",1.4
same,"Hill coefficient nH for capsaicin, 3wt/ya",[10],1.1
same,"capsaicin concentration required to achieve full TRPV1 activation, 4wt",[11],2 µM
same,"open probability, 4wt",[11]; [12],0.89 ± 0.10
same,"single-channel average amplitude, 4wt",[11]; [12],5.2 ± 0.4 pA
same,"unitary conductance, 4wt",[11]; [12],86 ± 3 pS
